pIC50: −log10 of the molar value.
Legend:
Experiment in all cases: cells
Conditions in all cases: Homo sapiens
[1] = system: SCC-9; assay type: functional, cell-based;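 note: Read-out is a cell viability assay, with values giving inhibition of cell growth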
Description: SANGER: Inhibition of human SCC-9 cell growth in a cell viability assay.

[2] = system: C3A; assay type: functional, cell-based;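 note: growth inhibition of C3A human cells, quantified with a cell viability readout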
Description: SANGER: Inhibition of human C3A cell growth in a cell viability assay.

[3] = system: SNU-449; assay type: functional, cell-based
Description: SANGER: Inhibition of human SNU-449 cell growth in a cell viability assay.

[4] = system: UO-31; assay type: functional, cell-based;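 note: cell viability assay measuring inhibition of cell growth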
Description: SANGER: Inhibition of human U031 cell growth in a cell viability assay.

[5] = system: COLO-678; assay type: functional, cell-based
Description: SANGER: Inhibition of human COLO-678 cell growth in a cell viability assay.

[6] = system: BHT-101; assay type: functional, cell-based
Description: SANGER: Inhibition of human BHT-101 cell growth in a cell viability assay.

[7] = system: IGROV-1; assay type: functional, cell-based;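 note: reduction of IGROV-1 cell growth, read out with a viability assay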
Description: SANGER: Inhibition of human IGROV-1 cell growth in a cell viability assay.

[8] = system: HSC-3; assay type: functional, cell-based
Description: SANGER: Inhibition of human HSC-3 cell growth in a cell viability assay.

[9] = system: HCC70; assay type: functional, cell-based;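 note: cell viability assay measuring how strongly the compound suppresses proliferation of HCC70 cells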
Description: SANGER: Inhibition of human HCC70 cell growth in a cell viability assay.

[10] = system: SW780; assay type: functional, cell-based;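 note: growth inhibition of the cells, read out with a cell viability assay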
Description: SANGER: Inhibition of human SW780 cell growth in a cell viability assay.

[11] = system: HuP-T3; assay type: functional, cell-based;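 note: HuP-T3 cell growth inhibition, read out with a cell viability assay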
Description: SANGER: Inhibition of human HuP-T3 cell growth in a cell viability assay.

[12] = system: DK-MG; assay type: functional, cell-based;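 note: growth inhibition of DK-MG cells, read out with a cell viability assay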
Description: SANGER: Inhibition of human DK-MG cell growth in a cell viability assay.

[13] = system: CAPAN-1; assay type: functional, cell-based;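 note: growth suppression of CAPAN-1 cells, read out by a cell viability assay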
Description: SANGER: Inhibition of human CAPAN-1 cell growth in a cell viability assay.

[14] = system: A 172; assay type: functional, cell-based;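 note: growth inhibition of A172 cells, measured with a cell viability readout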
Description: SANGER: Inhibition of human A172 cell growth in a cell viability assay.

[15] = system: 639-V; assay type: functional, cell-based;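 note: growth inhibition of 639-V cells, read out with a cell viability assay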
Description: SANGER: Inhibition of human 639-V cell growth in a cell viability assay.

[16] = system: Daoy; assay type: functional, cell-based;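 note: daoy cell growth inhibition, read out as cell viability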
Description: SANGER: Inhibition of human Daoy cell growth in a cell viability assay.

[17] = system: HCT-116; assay type: functional, cell-based
Description: SANGER: Inhibition of human HCT-116 cell growth in a cell viability assay.

[18] = system: FTC-133; assay type: functional, cell-based
[19] = system: HN; assay type: functional, cell-based
Description: SANGER: Inhibition of human HN cell growth in a cell viability assay.

[20] = system: U2OS; assay type: functional, cell-based, U-2-OS;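 note: growth inhibition of human U-2-OS cells, determined with a cell viability assay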
Description: SANGER: Inhibition of human U-2-OS cell growth in a cell viability assay.

[21] = system: HT-29; assay type: functional, cell-based;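 note: growth inhibition of human HT-29 cells, read out by a cell viability assay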
Description: SANGER: Inhibition of human HT-29 cell growth in a cell viability assay.

[22] = system: HuCCT-1; assay type: functional, cell-based, HuCCT1;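 note: growth inhibition of HuCCT-1 cells, read out by a cell viability assay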
Description: SANGER: Inhibition of human HuCCT1 cell growth in a cell viability assay.

[23] = system: CHP-212; assay type: functional, cell-based
Description: SANGER: Inhibition of human CHP-212 cell growth in a cell viability assay.

[24] = system: CAL-54; assay type: functional, cell-based;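 note: growth inhibition of CAL-54 cells, read out by a viability measurement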
Description: SANGER: Inhibition of human CAL-54 cell growth in a cell viability assay.

[25] = system: HTC-C3; assay type: functional, cell-based;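 note: inhibition of cell growth, read out with a cell viability assay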
Description: SANGER: Inhibition of human HTC-C3 cell growth in a cell viability assay.

[26] = system: DU-145; assay type: functional, cell-based
Description: SANGER: Inhibition of human DU-145 cell growth in a cell viability assay.

[27] = system: CAL-33; assay type: functional, cell-based;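 note: growth inhibition of CAL-33 cells, read out with a cell viability assay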
Description: SANGER: Inhibition of human CAL-33 cell growth in a cell viability assay.

[28] = system: D-336MG; assay type: functional, cell-based
Description: SANGER: Inhibition of human D-336MG cell growth in a cell viability assay.

[29] = system: 23132-87; assay type: functional, cell-based
Description: SANGER: Inhibition of human 23132-87 cell growth in a cell viability assay.

[30] = system: NCI-H2087; assay type: functional, cell-based;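 note: growth inhibition determined with a cell viability readout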
Description: SANGER: Inhibition of human NCI-H2087 cell growth in a cell viability assay.

[31] = system: NCI-H460; assay type: functional, cell-based;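 note: cell viability assay scoring growth inhibition of human NCI-H460 cells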
Description: SANGER: Inhibition of human NCI-H460 cell growth in a cell viability assay.

[32] = system: GMS-10; assay type: functional, cell-based;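 note: growth inhibition of GMS-10 cells, read out as cell viability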
Description: SANGER: Inhibition of human GMS-10 cell growth in a cell viability assay.

[33] = system: HT-1376; assay type: functional, cell-based
Description: SANGER: Inhibition of human HT-1376 cell growth in a cell viability assay.

[34] = system: CAMA-1; assay type: functional, cell-based;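 note: growth inhibition of CAMA-1 cells, read out with a cell viability assay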
Description: SANGER: Inhibition of human CAMA-1 cell growth in a cell viability assay.

[35] = system: NCI-H1573; assay type: functional, cell-based;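 note: growth inhibition of NCI-H1573 cells, read out with a cell viability assay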
Description: SANGER: Inhibition of human NCI-H1573 cell growth in a cell viability assay.

[36] = system: BFTC-905; assay type: functional, cell-based
Description: SANGER: Inhibition of human BFTC-905 cell growth in a cell viability assay.

[37] = system: SK-MEL3; assay type: functional, cell-based, SK-MEL-3;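 note: growth inhibition of human SK-MEL-3 cells, read out with a cell viability assay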
Description: SANGER: Inhibition of human SK-MEL-3 cell growth in a cell viability assay.

[38] = system: MHH-ES-1; assay type: functional, cell-based;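 note: cell growth inhibition measured by a cell viability assay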
Description: SANGER: Inhibition of human MHH-ES-1 cell growth in a cell viability assay.

[39] = system: Detroit 562; assay type: functional, cell-based;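 note: growth inhibition of human Detroit 562 cells, read out by a cell viability assay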
Description: SANGER: Inhibition of human Detroit562 cell growth in a cell viability assay.

[40] = system: CAL-85-1; assay type: functional, cell-based;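 note: growth inhibition of human CAL-85-1 cells, read out with a cell viability assay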
Description: SANGER: Inhibition of human CAL-85-1 cell growth in a cell viability assay.

[41] = system: KP-N-YN; assay type: functional, cell-based;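 note: growth inhibition of KP-N-YN cells, read out with a cell viability assay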
Description: SANGER: Inhibition of human KP-N-YN cell growth in a cell viability assay.

[42] = system: GP5d; assay type: functional, cell-based;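 note: growth inhibition of human GP5d cells, read out with a cell viability assay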
Description: SANGER: Inhibition of human GP5d cell growth in a cell viability assay.

[43] = system: G-402; assay type: functional, cell-based
Description: SANGER: Inhibition of human G-402 cell growth in a cell viability assay.

[44] = system: RPMI-7951; assay type: functional, cell-based
Description: SANGER: Inhibition of human RPMI-7951 cell growth in a cell viability assay.

[45] = system: SAS; assay type: functional, cell-based;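 note: growth inhibition of SAS cells, read out with a cell viability assay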
Description: SANGER: Inhibition of human SAS cell growth in a cell viability assay.

[46] = system: MeWo; assay type: functional, cell-based;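 note: growth inhibition of MeWo cells, determined by a cell viability readout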
Description: SANGER: Inhibition of human Mewo cell growth in a cell viability assay.

[47] = system: VMRC-RCZ; assay type: functional, cell-based;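 note: growth inhibition measured with a cell viability assay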
Description: SANGER: Inhibition of human VMRC-RCZ cell growth in a cell viability assay.

[48] = system: HEC-1; assay type: functional, cell-based;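 note: growth inhibition of the cell line, read out with a cell viability assay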
Description: SANGER: Inhibition of human HEC-1 cell growth in a cell viability assay.

[49] = system: NCI-H441; assay type: functional, cell-based;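 note: growth inhibition of NCI-H441 cells, read out with a cell viability assay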
Description: SANGER: Inhibition of human NCI-H441 cell growth in a cell viability assay.

[50] = system: TYK-nu; assay type: functional, cell-based;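 note: growth inhibition of human TYK-nu cells, read out by a cell viability assay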
Description: SANGER: Inhibition of human TYK-nu cell growth in a cell viability assay.

[51] = system: T-24; assay type: functional, cell-based;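 note: growth inhibition of T-24 cells, read out with a cell viability assay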
Description: SANGER: Inhibition of human T-24 cell growth in a cell viability assay.

[52] = system: MEL-HO; assay type: functional, cell-based
Description: SANGER: Inhibition of human MEL-HO cell growth in a cell viability assay.

[53] = system: MOLT-13; assay type: functional, cell-based;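 note: IC50 for suppression of MOLT-13 cell growth, read out with a cell viability assay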
Description: SANGER: Inhibition of human MOLT-13 cell growth in a cell viability assay.

[54] = system: MDA-MB-415; assay type: functional, cell-based
[55] = system: Panc1005; assay type: functional, cell-based;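 note: growth inhibition of human PANC-10-05 cells, measured by a cell viability assay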
Description: SANGER: Inhibition of human PANC-10-05 cell growth in a cell viability assay.

## C[C@]12O[C@H](C[C@]1(O)CO)n1c3ccccc3c3c4c(c5c6ccccc6n2c5c31)CNC4=O [LESTAURTINIB]
[1]
  pIC50: 5.92
[2]
  pIC50: < 5.70
[3]
  pIC50: < 5.70
[4]
  pIC50: < 5.70
[5]
  pIC50: < 5.70
[6]
  pIC50: 6.33
[7]
  pIC50: 6.34
[8]
  pIC50: 7.33
[9]
  pIC50: < 5.70
[10]
  pIC50: 6.49
[11]
  pIC50: 6.02
[12]
  pIC50: 5.96
[13]
  pIC50: < 5.70
[14]
  pIC50: 5.71
[15]
  pIC50: 6.16
[16]
  pIC50: 5.98
[17]
  pIC50: 6.86
[18]
  pIC50: 6.80
[19]
  pIC50: 6.74
[20]
  pIC50: 7.08
[21]
  pIC50: 6.18
[22]
  pIC50: 6.06
[23]
  pIC50: 7.09
[24]
  pIC50: 6.75
[25]
  pIC50: 6.73
[26]
  pIC50: < 5.70
[27]
  pIC50: 6.14
[28]
  pIC50: 6.71
[29]
  pIC50: 6.08
[30]
  pIC50: < 5.70
[31]
  pIC50: 5.93
[32]
  pIC50: 6.33
[33]
  pIC50: < 5.70
[34]
  pIC50: 5.98
[35]
  pIC50: 6.16
[36]
  pIC50: 6.60
[37]
  pIC50: 6.80
[38]
  pIC50: 6.49
[39]
  pIC50: 6.63
[40]
  pIC50: < 5.70
[41]
  pIC50: 5.71
[42]
  pIC50: 6.75
[43]
  pIC50: 5.96
[44]
  pIC50: 6.50
[45]
  pIC50: 6.02
[46]
  pIC50: 6.14
[47]
  pIC50: 7.08
[48]
  pIC50: 6.43
[49]
  pIC50: < 5.70
[50]
  pIC50: 6.73
[51]
  pIC50: < 5.70
[52]
  pIC50: 6.92
[53]
  pIC50: 6.39
[54]
  pIC50: < 5.70
[55]
  pIC50: < 5.70

## COc1cc(Nc2c(C#N)cnc3cc(OCCCN4CCN(C)CC4)c(OC)cc23)c(Cl)cc1Cl [BOSUTINIB]
[1]
  pIC50: < 5.70
[2]
  pIC50: < 5.70
[3]
  pIC50: < 5.70
[4]
  pIC50: < 5.70
[5]
  pIC50: < 5.70
[6]
  pIC50: 6.33
[7]
  pIC50: 6.31
[8]
  pIC50: 5.95
[9]
  pIC50: < 5.70
[10]
  pIC50: < 5.70
[11]
  pIC50: < 5.70
[12]
  pIC50: < 5.70
[13]
  pIC50: < 5.70
[14]
  pIC50: < 5.70
[15]
  pIC50: < 5.70
[16]
  pIC50: < 5.70
[17]
  pIC50: < 5.70
[18]
  pIC50: < 5.70
[19]
  pIC50: 5.72
[20]
  pIC50: < 5.70
[21]
  pIC50: < 5.70
[22]
  pIC50: < 5.70
[23]
  pIC50: < 5.70
[24]
  pIC50: 5.78
[25]
  pIC50: < 5.70
[26]
  pIC50: < 5.70
[27]
  pIC50: 5.92
[28]
  pIC50: < 5.70
[29]
  pIC50: < 5.70
[30]
  pIC50: < 5.70
[31]
  pIC50: < 5.70
[32]
  pIC50: < 5.70
[33]
  pIC50: 5.78
[34]
  pIC50: < 5.70
[35]
  pIC50: < 5.70
[36]
  pIC50: < 5.70
[37]
  pIC50: < 5.70
[38]
  pIC50: < 5.70
[39]
  pIC50: < 5.70
[40]
  pIC50: < 5.70
[41]
  pIC50: < 5.70
[42]
  pIC50: < 5.70
[43]
  pIC50: < 5.70
[44]
  pIC50: < 5.70
[45]
  pIC50: < 5.70
[46]
  pIC50: < 5.70
[47]
  pIC50: < 5.70
[48]
  pIC50: < 5.70
[49]
  pIC50: < 5.70
[50]
  pIC50: < 5.70
[51]
  pIC50: < 5.70
[52]
  pIC50: < 5.70
[53]
  pIC50: < 5.70
[54]
  pIC50: < 5.70
[55]
  pIC50: < 5.70

— ChEMBL document CHEMBL1201861, “Genomics of Drug Sensitity in Cancer screening data, Wellcome Trust Sanger Institute”
